Literature values in patent US6852743B1, “Preventives for the recurrence of cerebrovascular failure and agents for ameliorating troubles following cerebrovascular failure and inhibiting progress thereof” (Takeda Pharmaceutical Company Limited, priority 1999, dated 2005).

Assays:
[1] = test system: insulin sensitivity; details: clinically; Iimura O. et al., Am J Hypertens 8, 353-357, 1995
[2] = test system: automatic regulation of cerebral blood flow; details: literature report, Vraamark T et al., J Hypertens 13:755-761, 1995

SMILES | insulin sensitivity [1] | effect on the lower limit of automatic regulation [2]
CCOc1nc2cccc(C(=O)OC(C)OC(=O)OC3CCCCC3)c2n1Cc1ccc(-c2ccccc2-c2nnn[nH]2)cc1 (centres unmarked) [Candesartan cilexetil, 1-(cyclohexyloxycarbonyloxy)ethyl 2-ethoxy-1-[[2′-(1H-tetrazole-5-yl)biphenyl-4-yl]methyl]benzimidazole-7-carboxylate] | improve insulin sensitivity clinically | –
CCOc1nc2cccc(C(=O)O)c2n1Cc1ccc(-c2ccccc2-c2nnn[nH]2)cc1 [Candesartan, 2-ethoxy-1-[[2′-(1H-tetrazole-5-yl)biphenyl-4-yl]methyl]benzimidazol-7-carboxylic acid] | – | can deviate the lower limit of automatic regulation leftward (toward lower blood pressure level)
